# Test results reported in PubChem BioAssay (NCI).
#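 All cell lines were grown in 96-well plates and treated with compound for 48 hours. TGI marks complete inhibition of growth.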
# Columns and labels:
# Experiment in all cases: growth of human tumour cells (NCI), 48 h
# ACHN renal = tested on: ACHN renal
# HCT-116 colon = tested on: HCT-116 colon
# HOP-62 NSCLC = tested on: HOP-62 NSCLC
# MALME-3M melanoma = tested on: MALME-3M melanoma
# SF-268 CNS = tested on: SF-268 CNS
# SK-MEL-2 melanoma = tested on: SK-MEL-2 melanoma
# SK-MEL-28 melanoma = tested on: SK-MEL-28 melanoma
# SK-MEL-5 melanoma = tested on: SK-MEL-5 melanoma
# SN12C renal = tested on: SN12C renal
# SR leukemia = tested on: SR leukemia
Compound,TGI (ACHN renal) [µM],TGI (HCT-116 colon) [µM],TGI (HOP-62 NSCLC) [µM],TGI (MALME-3M melanoma) [µM],TGI (SF-268 CNS) [µM],TGI (SK-MEL-2 melanoma) [µM],TGI (SK-MEL-28 melanoma) [µM],TGI (SK-MEL-5 melanoma) [µM],TGI (SN12C renal) [µM],TGI (SR leukemia) [µM]
CC(C)C1(C)N=C(C(F)(F)F)c2cc(C(=O)C(F)(F)F)c3ccccc3c2N1 (centres undefined),12,11.8,18.5,12.7,13.7,6.99,20.8,25.9,11,> 100
CCc1n[nH]c(=O)n1/N=C/c1ccccc1Cl,> 100,> 100,> 100,> 100,> 100,> 100,> 100,> 100,> 100,> 100
CC(C)(C)N(Cc1ccc2c(c1)OCO2)C(=O)/C=C\S(=O)c1ccccc1 (centres undefined),15.2,7.84,17.7,13.9,5.78,9.11,22.8,12.9,9.03,> 27.7
COCC1OC(OC2C3=C(C(C)C)CCC3(C)/C=C3\C(CCC3(O)COC)C(C)C2O)C(O)C2OC3OC12OC3(C)C1CO1 (centres undefined),> 100,> 100,> 100,> 100,68.4,> 100,> 100,67.3,> 100,75.7
CCOC(=O)CCC(NC(=O)c1ccc(Oc2nc3ccc(C(F)(F)F)cc3nc2-c2ccccc2)cc1)C(=O)OCC (centres undefined),> 100,> 100,> 89.5,44.9,42.1,> 65.8,> 100,> 100,> 100,> 100
CCNC1(c2cccc(C)c2)OC(C)(C)c2cccc3cccc1c23 (centres undefined),32.4,97.4,48.9,34.3,30.9,30.3,–,34.8,35.9,35.9
CCCc1cc(=O)oc2c3c(c4c(c12)OC(C)(C)C=C4)O[C@@H](C)[C@H](C)C3=O,24.9,24.2,35.5,35.6,45.2,–,25.7,32.3,41.4,41.6
COc1ccc(C2SCC(=O)N2c2ccc(-n3c(-c4ccccc4)nc4ccccc4c3=O)cc2)cc1OC (centres undefined),> 100,> 100,> 100,> 100,> 100,> 100,> 100,> 100,> 100,> 100
O=[N+]([O-])c1cccc2nc3ccccc3c(NCCc3cccc[n+]3[O-])c12,0.039,–,0.245,< 0.034,0.202,0.528,< 0.01,< 0.01,0.28,0.161
COc1ccc(/C=C2\C[C@H]3[C@@H]4CCC5=C[C@@H](N6CCCC6)CC[C@]5(C)[C@H]4CC[C@]3(C)[C@H]2O)cc1,11.7,5.45,3.74,5.87,11.6,3.6,3.66,2.91,12.3,6.32
COC(=O)C1(Cc2ccc3c(c2)CCC3)Cc2ccc3c(c2C1O)CCC3 (centres undefined),26.7,28.1,28,27.3,69.8,–,32.6,22.1,28.5,> 100
CC1CC[C@@]2(OC1)OC1C[C@H]3[C@@H]4C/C(=N\N(C)C)[C@@]5(O)CC(O)CC[C@]5(C)[C@H]4CC[C@]3(C)C1[C@@H]2C (some centres undefined),> 100,76.1,> 100,83.7,> 100,> 100,> 100,> 100,> 100,54.6
CC(OC(=O)NCn1cc(-c2ccccc2)nn1)c1ccccc1 (centres undefined),> 100,> 100,> 100,89.9,–,> 100,> 100,32.4,> 100,> 100
N#Cc1c(-c2ccc([N+](=O)[O-])cc2)cc(-c2ccc(Nc3ccnc4cc(C(F)(F)F)ccc34)cc2)nc1N,> 68.8,27.5,51.3,> 62.8,> 72,> 59.7,59.8,> 83.3,46.6,> 20
O=C1NC(Cc2c[nH]c3ccccc23)C(=O)N2C(C3CCCCC3)c3[nH]c4ccccc4c3C[C@@H]12 (some centres undefined),77.4,22.1,44.9,28.4,49.3,32.2,44.4,25.4,20.8,34
COC(=O)C(O)P(=O)(OC)OC (centres undefined),> 100,> 100,> 100,> 100,> 100,> 100,> 100,> 100,> 100,> 100
Cc1ccc(-c2c(C#N)c(S)n(NS(=O)(=O)c3ccc(C)cc3)c(=O)c2C#N)cc1,49.8,90.9,–,38.7,–,62.2,61.2,49.2,> 100,> 100
Nc1c(-c2nc3ccccc3s2)c2ccc([N+](=O)[O-])cc2c(=O)n1-c1cccc(C(=O)O)c1,> 100,45.1,–,–,> 100,75.4,59.8,> 100,84.2,44.1
Cc1ccc(S(=O)(=O)NN=C2CCCCCCCCCCC2)cc1,> 100,> 100,> 100,> 100,> 100,> 100,> 100,> 100,> 100,> 100
CC(=O)O/N=C/c1ncccc1OC(C)=O,> 100,> 100,> 100,> 100,> 100,> 100,> 100,> 100,> 100,> 100
CCOc1ccc(/C(O)=C/c2nc3ccccc3nc2/C=C(\O)c2ccc(OCC)cc2)cc1,> 100,> 100,> 100,> 100,> 100,> 100,> 100,> 100,> 100,26.6
COc1cc(CCCOC(=O)/C=C/c2ccc(O)c(O)c2)cc(O)c1O,> 100,34.9,> 100,> 100,84.5,> 100,> 100,> 100,> 100,> 100

Compound,TGI (ACHN renal) [µM],TGI (HCT-116 colon) [µM],TGI (HOP-62 NSCLC) [µM],TGI (MALME-3M melanoma) [µM],TGI (SF-268 CNS) [µM],TGI (SK-MEL-2 melanoma) [µM],TGI (SK-MEL-28 melanoma) [µM],TGI (SK-MEL-5 melanoma) [µM],TGI (SN12C renal) [µM],TGI (SR leukemia) [µM]
CN(C)c1ccc(/C=C(\C#N)C(N)=C(C#N)C#N)cc1,> 100,> 100,> 100,> 100,> 100,–,> 100,> 100,> 100,> 100
O=C1CN2Cc3cc(N4CCOCC4)ccc3N=C2N1,–,> 100,> 100,> 100,–,> 100,> 100,> 100,> 100,> 100
CC1(C2(C)OC(=O)c3ccccc32)OC(=O)c2ccccc21 (centres undefined),> 100,> 100,> 100,–,> 100,> 100,> 100,> 100,> 100,> 100
CCCn1c(SCC)c2ccccc2c1-c1nc(F)nc(F)n1,> 100,> 100,> 100,> 100,> 100,> 100,> 100,–,> 100,> 100
N#CCCN(CCC#N)c1ccc(C(N=Nc2ccccc2)=Nc2ccccc2)cc1,> 100,> 100,> 100,–,> 100,> 100,> 100,> 100,> 100,> 100
COc1ccc2nc3ccc(OC)cc3c(S(=O)(=O)Cc3ccc([N+](=O)[O-])cc3)c2c1,> 100,> 100,> 100,> 100,> 100,> 100,> 100,–,> 100,> 100
CC1=C2c3c(C)ccc4ccc(C)c(c34)C2(O)C(C)C1=O (centres undefined),> 100,> 100,> 100,–,> 100,> 100,> 100,> 100,> 100,> 100
CCCCCCOc1ccc(C(=O)NOCc2ccccc2)cc1,> 100,> 100,> 100,–,> 100,> 100,> 100,> 100,> 100,67.4
Cc1cccc2c1Oc1cc(Cl)ccc1C2NC(=O)CCN1CCN(CCO)CC1 (centres undefined),–,34.6,32.9,–,> 100,–,9.93,27,28.7,45.1
O=C(O)C1CCCN1Cc1cc2ccccc2c2ccccc12 (centres undefined),> 100,> 100,> 100,> 100,> 100,> 100,> 100,> 100,> 100,–
CSC(C1c2ccccc2N(C)C2=NC(=O)N(C)C(=O)C21Cl)S(=O)(=O)c1ccc(C)cc1 (centres undefined),> 100,> 100,> 100,> 100,> 100,> 100,75.4,> 100,> 100,–
COC(OC)c1cccc2c1C(=O)CCC1(O)c3ccccc3C1C2 (centres undefined),–,> 100,> 100,> 100,> 100,> 100,> 100,> 100,> 100,> 100
Cc1c(CCOC=O)c(=O)[nH]c2nncn12,> 100,> 100,> 100,> 100,> 100,–,> 100,> 100,> 100,> 100
O=C(CC(=O)N1N=C(N2CCCCC2)CC1c1ccccc1)Nc1ccc(Cl)cc1 (centres undefined),> 100,> 100,> 100,> 100,> 100,> 100,> 100,> 100,> 100,–
COC1=CC(=O)[C@H]2[C@H](C)C(c3ccccc3)[C@@]2(C)C1=O (some centres undefined),> 100,–,> 100,> 100,> 100,> 100,> 100,> 100,–,> 100
Clc1ccc(Oc2ccc(N=Cc3ccc(Cl)cc3Cl)cc2Cl)cc1,> 100,> 100,> 100,87.4,> 100,> 100,> 100,> 100,> 100,–
COc1ccc(N2C(=O)C3ON(C(C(N)=O)c4ccccc4)C(c4ccc(-c5ccccc5)cc4)C3C2=O)cc1 (centres undefined),> 50,> 50,> 50,> 50,> 50,> 50,> 50,–,> 50,> 50
Cc1cn(C2CCC(/C=N\O)O2)c(=O)[nH]c1=O (centres undefined),> 100,> 100,> 100,–,–,> 100,> 100,> 100,> 100,> 100
CC(C)NC(=O)CN1CCN(C2=CC(=O)c3c(O)ccc(O)c3C2=O)CC1,54.1,9.79,32.3,4.41,53.1,34.3,31.6,7.78,29.1,–
CC1(C)CC(=O)C2=C(C1)c1c(ccc3ccccc13)NC2c1cn(Cc2ccc(Cl)cc2)c2ccccc12 (centres undefined),> 100,> 100,> 100,–,> 100,> 100,–,> 100,> 100,> 100
CC1=C2C(=O)[C@H]3[C@@H](CC=C4C[C@@H](O)CC[C@@]43C)[C@@H]2CC[C@]12O[C@@H]1C[C@H](C)CN[C@H]1[C@H]2C,> 56.3,> 68.5,> 55.2,> 79.3,> 66.7,> 72.5,> 92.1,> 61.9,> 60.6,–
